pEC50: −log10 of the molar value.
Legend:
[1] = system: Plasmodium falciparum; assay: Antimalarial activity against […] incubated for 72 hrs by DNA staining based MARK1 growth inhibition assay; assay type: functional, organism-based
[2] = system: Plasmodium falciparum; assay: Antimalarial activity against chloroquine-sensitive Plasmodium falciparum 3D7 incubated for 72 hrs by DNA staining based MAR3D7 growth inhibition assay; assay type: functional, organism-based; details: 3D7, 72 h
[3] = system: HepG2; assay: Cytotoxicity against human HepG2 cells after 72 hrs by […] CellTiterGlo reagent assay; assay type: cell-based; details: HepG2, 72 h
[4] = system: Raji; assay: Cytotoxicity against human Raji cells after 72 hrs by […] CellTiterGlo reagent assay; assay type: cell-based
[5] = system: BJ; assay: Cytotoxicity against human BJ cells after 72 hrs by […] CellTiterGlo reagent assay; assay type: cell-based
[6] = system: HEK293; assay: Cytotoxicity against human HEK293 cells after 72 hrs by […] CellTiterGlo reagent assay; assay type: cell-based; details: HEK293, 72 h

## CCOC(=O)CCCCCOc1cccc(CN(C(=O)c2ccc(-c3cc4ccccc4n3S(=O)(=O)c3ccccc3)cc2)C(C)C)c1
[1]
  pEC50: < 4.82
[2]
  pEC50: < 4.82
[3]
  pEC50: < 4.58
[4]
  pEC50: < 4.58
[5]
  pEC50: < 4.58
[6]
  pEC50: < 4.58

## CCOC(=O)CCCCCOc1cccc(CN(C(=O)c2ccc(-c3cccc(CC#N)c3)cc2)C(C)C)c1
[1]
  pEC50: < 4.82
[2]
  pEC50: < 4.82
[3]
  pEC50: < 4.58
[4]
  pEC50: < 4.58
[5]
  pEC50: < 4.58
[6]
  pEC50: < 4.58

— ChEMBL document CHEMBL2046380, “Synthesis and structure-activity relationship of disubstituted benzamides as a novel class of antimalarial agents” (Bioorg Med Chem Lett, 2012)
